System: Bacillus pumilus
Assay: Antimicrobial activity Bacillus pumilus at 0.5 umol/disk by disk diffusion method
Type: functional

## CC(=O)N[C@@H](CCO[C@H](C)C/C=C/CC[C@@H](O)C/C=C/C=C/C=C/C=C/C=C/C=C/c1cc(O)c(CC[C@H](N)C(=O)O)c(=O)o1)C(=O)O [MYCENAAURIN A]
  inhibition zone (IZ): 2.5 cm
